IC50 data for 51 compounds are collected here from US20080027035A1, “Dpp-Iv Inhibitors” (GRAFFINITY PHARMACEUTICALS AG, priority 2003, published 2008).

Structures are written as SMILES.

T1 sequence (P27487 31-766): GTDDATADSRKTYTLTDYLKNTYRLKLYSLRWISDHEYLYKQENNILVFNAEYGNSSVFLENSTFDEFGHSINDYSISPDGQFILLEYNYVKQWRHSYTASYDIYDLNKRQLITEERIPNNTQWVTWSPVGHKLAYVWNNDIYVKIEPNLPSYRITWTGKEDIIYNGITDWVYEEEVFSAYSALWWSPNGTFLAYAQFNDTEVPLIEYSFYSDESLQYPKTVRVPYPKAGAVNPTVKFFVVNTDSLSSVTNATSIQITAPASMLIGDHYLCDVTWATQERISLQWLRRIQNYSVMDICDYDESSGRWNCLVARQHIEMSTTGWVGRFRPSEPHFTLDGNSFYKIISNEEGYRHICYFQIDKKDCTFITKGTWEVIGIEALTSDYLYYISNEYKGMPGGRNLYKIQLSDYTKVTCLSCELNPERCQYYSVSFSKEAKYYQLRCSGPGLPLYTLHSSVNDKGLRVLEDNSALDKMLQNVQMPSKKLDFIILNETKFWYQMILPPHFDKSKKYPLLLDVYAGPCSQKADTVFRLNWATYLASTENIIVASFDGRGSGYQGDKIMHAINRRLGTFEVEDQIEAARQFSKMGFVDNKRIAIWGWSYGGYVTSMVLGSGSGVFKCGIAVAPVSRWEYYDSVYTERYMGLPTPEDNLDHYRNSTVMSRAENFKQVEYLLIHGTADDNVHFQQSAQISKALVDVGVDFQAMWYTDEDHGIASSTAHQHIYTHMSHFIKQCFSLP

This test has as its target T1, DPP-IV (Homo sapiens, UniProt P27487).
T1 construct: Soluble human DPP-IV lacking the transmembrane anchor (Gly31-Pro766); Pre-Pro-alpha-mating factor leader (secretion signal) (N, cleaved yes); made in house
Briefly: Inhibition of DPP-IV peptidase activity, continuous fluorimetric assay (Gly-Pro-AMC cleavage). The test is classed as biochemical. To be noted: 16 μM Gly-Pro-AMC, pH 7.4, 25° C., 1% DMSO. As for the experimental part:
Inhibition of DPP-IV peptidase activity was monitored with a continuous fluorimetric assay. This assay is based on the cleavage of the substrate Gly-Pro-AMC (Bachem) by DPP-IV, releasing free AMC. The assay is carried out in 96-well microtiterplates. In a total volume of 100 μL, compounds are preincubated with […] employing a buffer containing 10 mM Hepes, 150 mM NaCl, 0.005% Tween 20 (pH 7.4). […] The final concentration of DMSO is 1%. The inhibitory potential of the compounds were determined.
Soluble human DPP-IV lacking the transmembrane anchor (Gly31-Pro766) was expressed in a recombinant YEAST-strain as Pre-Pro-alpha-mating fusion.
For the compound `N[C@@H](CC(=O)N1CCC[C@H]1COCc1ccccc1)Cc1ccccc1F` [Example 32, (3R)-Amino-1-[(2S)-benzyloxymethyl-pyrrolidin-1-yl]-4-(2-fluoro-phenyl)-butan-1-one], the IC50 lay within 101 to 1000 nM.

In turn, `N[C@@H](CC(=O)N1CCC[C@H]1CNC(=O)Nc1ccccc1)Cc1ccccc1F` [Example 86, 1-{1-[(3R)-Amino-4-(2-fluoro-phenyl)-butyryl]-pyrrolidin-(2S)-ylmethyl}-3-phenyl-urea] came in with an IC50 below 100 nM.

For the compound `N[C@@H](CC(=O)N1CCC[C@H]1CNC(=O)c1cccc(F)c1)Cc1ccccc1F` [Example 56], the IC50 was below 100 nM.

In turn, `N#Cc1ccccc1OC[C@@H]1CCCN1C(=O)C[C@H](N)Cc1ccccc1F` [Example 37] returned an IC50 below 100 nM.

`N[C@@H](CC(=O)N1CCCC[C@H]1CNS(=O)(=O)c1ccccc1)Cc1ccccc1F` [Example 88, N-{1-[(3R)-Amino-4-(2-fluoro-phenyl)-butyryl]-piperidin-(2S)-ylmethyl}-benzenesulfonamide] had a concentration for half-maximal inhibition (IC50) of 101 to 1000 nM.

`CS(=O)(=O)c1ccc(C(=O)NC[C@@H]2CCCN2C(=O)C[C@H](N)Cc2ccccc2F)cc1` [Example 61] registered an IC50 below 100 nM.

In turn, `N[C@@H](CC(=O)N1CCC[C@H]1CNS(=O)(=O)c1ccc(Cl)cc1)Cc1ccccc1F` [Example 81] displayed a 50% inhibitory concentration (IC50) below 100 nM.

The compound `N#Cc1ccc(OC[C@@H]2CCCN2C(=O)C[C@H](N)Cc2ccccc2F)cc1` [Example 34] gave an IC50 below 100 nM.

`N[C@@H](CC(=O)N1CCC[C@H]1CNC(=O)c1ccc(F)cc1)Cc1ccccc1F` [Example 57] returned an IC50 below 100 nM.

For `N[C@@H](CC(=O)N1CCC[C@H]1CNc1nc(-c2cccc(Cl)c2)no1)Cc1ccccc1F` [Example 102], the IC50 was below 100 nM.

For the compound `N[C@@H](CC(=O)N1CCC[C@H]1COc1ccccn1)Cc1ccccc1F` [Example 39], the IC50 is below 100 nM.

Compound `N[C@@H](CC(=O)N1CCC[C@H]1CNC(=O)c1ccccc1)Cc1cccc(F)c1` [Example 46] yielded a concentration for half-maximal inhibition (IC50) below 100 nM.

`N[C@@H](CC(=O)N1CCC[C@H]1CNc1ccccc1)Cc1ccccc1F` [Example 66, (3R)-Amino-4-(2-fluoro-phenyl)-1-[(2S)-phenylaminomethyl-pyrrolidin-1-yl]-butan-1-one] registered an IC50 below 100 nM.

On to `N[C@@H](CC(=O)N1CCC[C@H]1CNc1nc(-c2cccc(F)c2)no1)Cc1ccccc1F` [Example 103, (3R)-Amino-4-(2-fluorophenyl)-1-((2S)-{[3-(3-fluorophenyl)-[1,2,4]oxadiazol-5-ylamino]-methyl}-pyrrolidin-1-yl)-butan-1-one], for which the IC50 lay within 1000 to 2000 nM.

Regarding `N[C@@H](CC(=O)N1CCC[C@H]1CNC(=O)c1ccccc1)Cc1ccc(F)cc1` [Example 44], the IC50 fell in the range of 101 to 1000 nM.

As to `CS(=O)(=O)c1ccccc1C(=O)NC[C@@H]1CCCN1C(=O)C[C@H](N)Cc1ccccc1F` [Example 62], the IC50 was below 100 nM.

`N[C@@H](CC(=O)N1CCCC[C@H]1CNC(=O)c1ccccc1)Cc1ccccc1F` [Example 87, N-{1-[(3R)-Amino-4-(2-fluoro-phenyl)-butyryl]-piperidin-(2S)-ylmethyl}-benzamide] yielded an IC50 of 101 to 1000 nM.

`N#Cc1cccc(OC[C@@H]2CCCN2C(=O)C[C@H](N)Cc2ccccc2F)c1` [Example 36] had an IC50 below 100 nM.

`N[C@@H](CC(=O)N1CCC[C@H]1CNC(=O)c1cccnc1)Cc1ccccc1F` [Example 59] showed an IC50 below 100 nM.

`N#Cc1ccc(NC[C@@H]2CCCN2C(=O)C[C@H](N)Cc2ccccc2F)nc1` [Example 68, 6-({1-[3-Amino-4-(2-fluoro-phenyl)-butyryl]-pyrrolidin-2-ylmethyl}-amino)-nicotinonitrile] yielded an IC50 below 100 nM.

`N[C@@H](CC(=O)N1CC(CNS(=O)(=O)c2ccccc2)C1)Cc1ccccc1F` [Example 91, N-{1-[3-Amino-4-(2-fluoro-phenyl)-butyryl]-azetidin-3-ylmethyl}-benzenesulfonamide] showed an IC50 of 101 to 1000 nM.

As for `CS(=O)(=O)c1ccc(-c2noc(NC[C@@H]3CCCN3C(=O)C[C@H](N)Cc3ccccc3F)n2)cc1` [Example 104, (3R)-Amino-4-(2-fluorophenyl)-1-((2S)-{[3-(4-methanesulphonylphenyl)-[1,2,4]oxadiazol-5-ylamino]-methyl}-pyrrolidin-1-yl)-butan-1-one], the IC50 is below 100 nM.

`N[C@@H](CC(=O)N1CCC[C@H]1CNC(=O)c1ccccc1)Cc1cccc(Cl)c1` [Example 45] showed an IC50 below 100 nM.

For `N[C@@H](CC(=O)N1CCC[C@H]1CNc1nc(-c2ccccn2)no1)Cc1ccccc1F` [Example 101, (3R)-Amino-4-(2-fluorophenyl)-1-{(2 S)-[(3-pyridin-2-yl-[1,2,4]oxadiazol-5-ylamino)-methyl]-pyrrolidin-1-yl}-butan-1-one], the IC50 is below 100 nM.

With `N[C@@H](CC(=O)N1CCCC(CNS(=O)(=O)c2ccccc2)C1)Cc1ccccc1F` (stereo partly drawn) [Example 89, N-{1-[3-Amino-4-(2-fluoro-phenyl)-butyryl]-piperidin-3-ylmethyl}-benzenesulfonamide], the IC50 lay within 101 to 1000 nM.

Consider `N[C@@H](CC(=O)N1CCC[C@H]1CNS(=O)(=O)c1ccccc1F)Cc1ccccc1F` [Example 83], for which the IC50 was below 100 nM.

In the case of `COc1ccc(S(=O)(=O)NC[C@@H]2CCCN2C(=O)C[C@H](N)Cc2ccccc2F)cc1` [Example 80], the IC50 was below 100 nM.

`N[C@@H](CC(=O)N1CCC[C@H]1CNS(=O)(=O)c1cccc(F)c1)Cc1ccccc1F` [Example 79] displayed an IC50 below 100 nM.

For the compound `N#Cc1cccc(C[C@@H](N)CC(=O)N2CCC[C@H]2CNC(=O)c2ccccc2)c1` [Example 47], the IC50 is 101 to 1000 nM.

With `N[C@@H](CC(=O)N1CCC[C@H]1CNC(=O)c1ccncc1)Cc1ccccc1F` [Example 60], the IC50 was below 100 nM.

`N[C@@H](CC(=O)N1CCC[C@H]1COc1ccc(F)cc1)Cc1ccccc1F` [Example 38] displayed an IC50 below 100 nM.

The compound `COC[C@@H]1CCCN1C(=O)C[C@H](N)Cc1ccccc1F` [Example 33] displayed an IC50 of 101 to 1000 nM.

Turning to `COc1cccc(C(=O)NC[C@@H]2CCCN2C(=O)C[C@H](N)Cc2ccccc2F)c1` [Example 54, N-{1-[3-Amino-4-(2-fluoro-phenyl)-butyryl]-pyrrolidin-2-ylmethyl}-3-methoxy-benzamide], the IC50 is below 100 nM.

`N[C@@H](CC(=O)N1CC(CNC(=O)c2ccccc2)C1)Cc1ccccc1F` [Example 90, N-{1-[(3R)-Amino-4-(2-fluoro-phenyl)-butyryl]-azetidin-3-ylmethyl}-benzamide] returned an IC50 of 101 to 1000 nM.

`N[C@@H](CC(=O)N1CC(COc2ccccc2)C1)Cc1ccccc1F` [Example 92, 3-Amino-4-(2-fluoro-phenyl)-1-(3-phenoxymethyl-azetidin-1-yl)-butan-1-one] had a concentration for half-maximal inhibition (IC50) of 1000 to 2000 nM.

`N[C@@H](CC(=O)N1CC(COc2ccccn2)C1)Cc1ccccc1F` [Example 93] returned an IC50 of 1000 to 2000 nM.

Compound `COc1ccc(S(=O)(=O)NC[C@@H]2CCCN2C(=O)C[C@H](N)Cc2ccccc2F)cc1OC` [Example 78, N-{1-[3-Amino-4-(2-fluoro-phenyl)-butyryl]-pyrrolidin-2-ylmethyl}-3,4-dimethoxy-benzenesulfonamide] gave an IC50 below 100 nM.

As for `N[C@@H](CC(=O)N1CCCC(CNC(=O)c2ccccc2)C1)Cc1ccccc1F` (mixture of isomers) [Example 94, N-{1-[(3R)-Amino-4-(2-fluoro-phenyl)-butyryl]-piperidin-3-ylmethyl}-benzamide], the IC50 was in the range of 101 to 1000 nM.

As for `N[C@@H](CC(=O)N1CCCC(CO)C1)Cc1ccccc1F` (mixture of isomers) [Example 105, 3-Amino-4-(2-fluoro-phenyl)-1-(3-hydroxymethyl-piperidin-1-yl)-butan-1-one], the IC50 lay within 1000 to 2000 nM.

In turn, `N[C@@H](CC(=O)N1CCC[C@H]1CNc1nc(-c2ccccc2)no1)Cc1ccccc1F` [Example 100, (3R)-Amino-4-(2-fluorophenyl)-1-{(2S)-[(3-phenyl-[1,2,4]oxadiazol-5-ylamino)-methyl]-pyrrolidin-1-yl}butan-1-one] gave an IC50 of 101 to 1000 nM.

The compound `N[C@@H](CC(=O)N1CCC[C@H]1CNC(=O)c1ccccc1F)Cc1ccccc1F` [Example 55] had an IC50 below 100 nM.

`N[C@@H](CC(=O)N1CCC[C@H]1COc1cccc(F)c1)Cc1cccc(Cl)c1` [Example 41] came in with an IC50 below 100 nM.

Take `N[C@@H](CC(=O)N1CCC[C@H]1CNC(=O)c1ccccc1)Cc1ccccc1Cl` [Example 48]: the IC50 was below 100 nM.

On to `CS(=O)(=O)NC[C@@H]1CCCN1C(=O)C[C@H](N)Cc1ccccc1F` [Example 85], for which the IC50 was below 100 nM.

With `N[C@@H](CC(=O)N1CCC[C@H]1CNC(=O)c1ccccc1)Cc1ccc(F)c(F)c1` [Example 50], the concentration for half-maximal inhibition (IC50) was below 100 nM.

`N[C@@H](CC(=O)N1CCC[C@H]1CN1CCCC1)Cc1cccc(Cl)c1` [Example 67] came in with an IC50 of 101 to 1000 nM.

Take `N[C@@H](CC(=O)N1CCC[C@H]1CNS(=O)(=O)c1ccc(F)cc1)Cc1ccccc1F` [Example 84]: the IC50 is below 100 nM.

`N[C@@H](CC(=O)N1CCC[C@H]1COc1cccc(F)c1)Cc1ccccc1F` [Example 40] yielded an IC50 below 100 nM.

`N[C@@H](CC(=O)N1CCC[C@H]1CNS(=O)(=O)c1cc(Cl)ccc1Cl)Cc1ccccc1F` [Example 82] registered an IC50 below 100 nM.

As for `N[C@@H](CC(=O)N1CCC[C@H]1COc1ccccc1)Cc1ccccc1F` [Example 35], the half-inhibitory concentration (IC50) was below 100 nM.

Take `N[C@@H](CC(=O)N1CCC[C@H]1CNc1cnccn1)Cc1ccccc1F` [Example 69]: the IC50 lay within 101 to 1000 nM.
